{"source": "patent US8709406B2", "about": "“Prevention and treatment of oxidative stress disorders by gluthathione and phase II detoxification enzymes” (Brassica Foundation for ChemoProtection Research, priority 2001, dated 2014)", "key": {"ARPE-19 cells": {"tested_on": "ARPE-19 cells", "test": "Oxidant cytotoxicity (MTT viability, median effect analysis) and protection by 24 h sulforaphane pretreatment", "format": "cell-based, human", "conditions": "ARPE-19; for Dm of menadione: Example 3; for Dm of menadione / Dm (median effect concentration) of menadione / m (slope of median effect plot) for menadione: menadione 2 h; for Dm (median effect concentration) of tert-butyl hydroperoxide / m (slope of median effect plot) for tert-butyl hydroperoxide: tert-butyl hydroperoxide 16 h", "description": "All experiments were performed in 96-well microliter plates. ARPE-19 and HaCaT cells were seeded at 10,000 cells per well and grown for 24 h before addition of sulforaphane, whereas L1210 cells (5,000 cells/well) were not incubated before sulforaphane treatment. Solutions of sulforaphane (5 mM) in dimethyl sulfoxide were diluted with the cognate culture medium to provide final inducer concentrations of 0.16-5.0 μM. The final DMSO concentrations were 0.1% by volume.\nTert-Butyl hydroperoxide (1 M) and 4-hydroxynonenal (25 mM) were dissolved in DMSO and diluted 1000-fold with serum-free medium before addition of serial dilutions to the microtiter plate wells. The final concentrations of DMSO were therefore less than 0.1% (by vol.). Menadione sodium bisulfite (0.5 M) and SIN-1 (0.5 M) were dissolved and added in PBS. ARPE-19 cells were exposed to menadione for 2 h and to tert-butyl hydroperoxide for 16 h, washed with PBS, and cell viability was determined by the MIT test. ARPE-19 cells were exposed to peroxynitrite for 2 h and 4-hydroxynonenal for 4 h, and the cells were then incubated in serum-free media for 22 and 20 h, respectively, washed with PBS, and cell viability was determined. The additional incubation periods were required for peroxynitrite and 4-hydroxynonenal to evoke maximal cytotoxicity.\nCell viability was determined by spectroscopic measurement of the reduction of MTT (Carmichael, J., DeGraff, W. G., Gazdar, A. F., Minna, J. D. & Mitchell, J. B. (1987) Cancer Res. 47, 936-942). The culture media were discarded after the designated incubation periods, the cells were washed three times with PBS by use of a microtiter plate washer (Ultrawash Plus, Dynex Technologies, Chantilly, Va.). Each well then received 150 μl of an MTT solution (0.5 mg/ml) in serum-free medium. The plates were incubated for 2 h at 37° C., the MTT solution was discarded, 100 μl of DMSO were added to each well, and the plates were shaken at 200 rpm on an orbital shaker for 5 min. The absorbances of the wells were determined at 555 nm with a microtiter plate reader (Spectra Max Plus, Molecular Devices, Sunnyvale, Calif.). The absorbance of reduced MIT was then compared at each inducer and oxidant concentration to that of untreated control cells that received only the vehicle in which sulforaphane (DMSO) and menadione (DMSO or PBS) were dissolved. In each experiment three identical 96-well plates were used and the means of the absorbance values, the standard deviations of these means, and their coefficients of variation were calculated.\nDose-effect analyses were performed according to the Median Effect Equation, by use of a computer program (Chou, T. C. & Hayball, M. (1996) CalcuSyn for Windows 3.1 and 95: multiple dose effect analyzer and manual for IBM-PC, Biosoft, Cambridge, U.K). The equation: fa/fu=[D/Dm]^m, where fa is the fraction of cells affected by the oxidant, fu is the fraction unaffected (i.e., 1-fa), D is the dose of oxidant required to produce the effect fa, Dm is the concentration of oxidant required to produce a 50% effect, i.e., when fa=fu, and the slope m is a measure of the sigmoidicity of the dose-response curve, and is therefore a measure of cooperativity. The results are analyzed by plotting log(fa/fu) with respect to log D of the oxidant. The computer program provides the slope (m) of the curves, and the goodness of fit (r^2) to linearity."}, "[1]": {"tested_on": "glucose 6-phosphate dehydrogenase", "conditions": "ARPE-19; sulforaphane 0.625 and 2.5 μM 24 h, then medium without inducer", "description": "(§1) Cells were lysed by addition of a digitonin solution (0.8 mg/ml digitonin in 2 mM EDTA, pH 7.8), incubated at 37° C. for 20 min, gently shaken for 20 min at 25° C., and centrifuged at 1,500×g for 20 min at 4° C.\n(§2) All measurements were made in 96-well microtiter plates at 25° C., and reaction rates were monitored with a microtiter plate reader. The QR activities of supernatant fractions were determined by procedures developed in our laboratory (Fahey, J. W., Zhang, Y. & Talalay, P. (1997) Proc. Natl. Acad. Sci. USA 94, 10367-10372; Prochaska, H. J., Santamaria, A. B. & Talalay, P. (1992) Proc. Natl. Acad. Sci. USA 89, 2394-2398.). Specific activities were obtained by relating the reaction rates to protein concentrations determined with the bicinchoninic acid reagent (Smith, P. K., Krohn, R. I., Hermanson, G. T., Mallia, A. K., Gratner, F. H., Provenzano, M. D., Fujimoto, E. K., Goeke, N. M., Olson, B. J. & Klenk, D. C. (1985) Anal. Biochem. 150, 76-85). […] Glutathione reductase activity was assayed by mixing 50 μl of cell lysate with 25 μl of 1 mM NADPH, 25 μl of GSSG (20 mg/ml), and 150 μl of 50 mM sodium phosphate, pH 7.5. Initial reaction rates were obtained at 340 nm (Carlberg, I. & Mannervik, B. (1985) Methods Enzymol. 113, 484-490)."}, "glutathione reductase": {"tested_on": "glutathione reductase", "conditions": "ARPE-19; sulforaphane 0.625 and 2.5 μM 24 h, then medium without inducer", "description": "as §1, §2"}, "quinone reductase": {"tested_on": "quinone reductase", "conditions": "ARPE-19", "description": "as §1, §2"}, "[2]": {"conditions": "after sulforaphane 0.63 μM 24 h"}, "[3]": {"conditions": "after sulforaphane 1.25 μM 24 h"}, "[4]": {"conditions": "after sulforaphane 2.50 μM 24 h"}, "[5]": {"conditions": "after sulforaphane 5.00 μM 24 h"}}, "note": "Read-outs that look alike come from different tables or passages of the source."}
{"molecule": "C[S+]([O-])CCCCN=C=S", "note": "(stereo not shown) [Sulforaphane]", "values": [{"measurement": "m (slope of median effect plot) for 4-hydroxynonenal", "setting": "ARPE-19 cells; 4-hydroxynonenal 4 h, after sulforaphane 0.63 μM 24 h", "result": 2.51}, {"measurement": "EC50", "setting": "ARPE-19 cells; 4-hydroxynonenal 4 h, after sulforaphane 0.63 μM 24 h, read-out: Dm (median effect concentration) of 4-hydroxynonenal", "result": 14.1, "unit": "µM"}, {"measurement": "m (slope of median effect plot) for 4-hydroxynonenal", "setting": "ARPE-19 cells; 4-hydroxynonenal 4 h, after sulforaphane 1.25 μM 24 h", "result": 2.78}, {"measurement": "EC50", "setting": "ARPE-19 cells; 4-hydroxynonenal 4 h, after sulforaphane 1.25 μM 24 h, read-out: Dm (median effect concentration) of 4-hydroxynonenal", "result": 25.8, "unit": "µM"}, {"measurement": "m (slope of median effect plot) for 4-hydroxynonenal", "setting": "ARPE-19 cells; 4-hydroxynonenal 4 h, after sulforaphane 2.50 μM 24 h", "result": 2.51}, {"measurement": "EC50", "setting": "ARPE-19 cells; 4-hydroxynonenal 4 h, after sulforaphane 2.50 μM 24 h, read-out: Dm (median effect concentration) of 4-hydroxynonenal", "result": 26.8, "unit": "µM"}, {"measurement": "Dm of menadione", "setting": "ARPE-19 cells; after sulforaphane 0.625 μM 24 h", "result": 69.2, "unit": "µM"}, {"measurement": "Dm of menadione", "setting": "ARPE-19 cells; after sulforaphane 2.5 μM 24 h", "result": 94.5, "unit": "µM"}, {"measurement": "degree of protection against different oxidants", "setting": "ARPE-19 cells; comparable concentrations of sulforaphane", "result": "2- to 3 fold"}, {"measurement": "Dm (median effect concentration) of menadione", "setting": "ARPE-19 cells; [2]", "result": 98.6, "unit": "µM"}, {"measurement": "m (slope of median effect plot) for menadione", "setting": "ARPE-19 cells; [2]", "result": 3.69}, {"measurement": "Dm (median effect concentration) of menadione", "setting": "ARPE-19 cells; [3]", "result": 110, "unit": "µM"}, {"measurement": "m (slope of median effect plot) for menadione", "setting": "ARPE-19 cells; [3]", "result": 3.49}, {"measurement": "Dm (median effect concentration) of menadione", "setting": "ARPE-19 cells; after sulforaphane 1.25 μM 24 h, listed as sulforaphane", "result": 109.9, "unit": "µM"}, {"measurement": "Dm (median effect concentration) of menadione", "setting": "ARPE-19 cells; [4]", "result": 123, "unit": "µM"}, {"measurement": "m (slope of median effect plot) for menadione", "setting": "ARPE-19 cells; [4]", "result": 3.58}, {"measurement": "Dm (median effect concentration) of menadione", "setting": "ARPE-19 cells; after sulforaphane 2.50 μM 24 h, listed as sulforaphane", "result": 122.9, "unit": "µM"}, {"measurement": "Dm (median effect concentration) of menadione", "setting": "ARPE-19 cells; [5]", "result": 134, "unit": "µM"}, {"measurement": "m (slope of median effect plot) for menadione", "setting": "ARPE-19 cells; [5]", "result": 3.12}, {"measurement": "Dm (median effect concentration) of menadione", "setting": "ARPE-19 cells; after sulforaphane 5.00 μM 24 h, listed as sulforaphane", "result": 134.2, "unit": "µM"}, {"measurement": "m (slope of median effect plot) for peroxynitrite", "setting": "ARPE-19 cells; peroxynitrite (from SIN-1) 2 h, after sulforaphane 0.63 μM 24 h", "result": 6.30}, {"measurement": "EC50", "setting": "ARPE-19 cells; peroxynitrite (from SIN-1) 2 h, after sulforaphane 0.63 μM 24 h, read-out: Dm (median effect concentration) of peroxynitrite", "result": 2780, "unit": "µM"}, {"measurement": "m (slope of median effect plot) for peroxynitrite", "setting": "ARPE-19 cells; peroxynitrite (from SIN-1) 2 h, after sulforaphane 1.25 μM 24 h", "result": 6.19}, {"measurement": "EC50", "setting": "ARPE-19 cells; peroxynitrite (from SIN-1) 2 h, after sulforaphane 1.25 μM 24 h, read-out: Dm (median effect concentration) of peroxynitrite", "result": 2820, "unit": "µM"}, {"measurement": "m (slope of median effect plot) for peroxynitrite", "setting": "ARPE-19 cells; peroxynitrite (from SIN-1) 2 h, after sulforaphane 2.50 μM 24 h", "result": 6.62}, {"measurement": "EC50", "setting": "ARPE-19 cells; peroxynitrite (from SIN-1) 2 h, after sulforaphane 2.50 μM 24 h, read-out: Dm (median effect concentration) of peroxynitrite", "result": 2890, "unit": "µM"}, {"measurement": "time for which protection against menadione toxicity is maintained or exceeded after 24-h induction", "setting": "ARPE-19 cells; sulforaphane 0.625 and 2.5 μM 24 h, then serum-free culture", "result": "at least 3 days"}, {"measurement": "Dm (median effect concentration) of tert-butyl hydroperoxide", "setting": "ARPE-19 cells; [2]", "result": 140, "unit": "µM"}, {"measurement": "m (slope of median effect plot) for tert-butyl hydroperoxide", "setting": "ARPE-19 cells; [2]", "result": 2.17}, {"measurement": "Dm (median effect concentration) of tert-butyl hydroperoxide", "setting": "ARPE-19 cells; [3]", "result": 163, "unit": "µM"}, {"measurement": "m (slope of median effect plot) for tert-butyl hydroperoxide", "setting": "ARPE-19 cells; [3]", "result": 1.79}, {"measurement": "Dm (median effect concentration) of tert-butyl hydroperoxide", "setting": "ARPE-19 cells; [4]", "result": 165, "unit": "µM"}, {"measurement": "m (slope of median effect plot) for tert-butyl hydroperoxide", "setting": "ARPE-19 cells; [4]", "result": 1.26}, {"measurement": "specific activity of glucose 6-phosphate dehydrogenase after removal of sulforaphane", "setting": "[1]", "result": "continued to rise for 48 h after removal of sulforaphane"}, {"measurement": "specific activity of glutathione reductase after removal of sulforaphane", "setting": "glutathione reductase", "result": "continued to rise for 48 h after removal of sulforaphane"}, {"measurement": "specific activities of QR in cytosols", "setting": "quinone reductase; sulforaphane 0-5.0 μM 24 h", "result": "rose with exposure to increasing concentrations of sulforaphane"}, {"measurement": "specific activity of QR after removal of sulforaphane", "setting": "quinone reductase; sulforaphane 0.625 and 2.5 μM 24 h, then medium without inducer", "result": "continued to rise for 48 h after removal of sulforaphane"}]}
